# In PubChem BioAssay AID2060490 (Molecular Pharmacology Branch, DTP, NCI, 2025):
# Tested on: 885512-296-R-J2-PDC complex spheroid viability
# Assay: Anticancer human tumor 885512-296-R-J2-PDC patient-derived breast carcinoma cell line growth inhibition [GQUAD]
# Settings: for IC50: curve of first compound; for viability, T/C: stronger effect = lower value
# Outline: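 Multi-cell-type spheroids of tumor cells with HUVEC and mesenchymal stem cells, treated with drug combinations. Concentrations descend in half-log steps from near clinical Cmax, or from 10 microM where Cmax is unknown; viability read-out.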
# [1] = second compound 0.0316 µM, first compound 0.0316 µM
# [2] = second compound 0.0316 µM, first compound 0.1 µM
# [3] = second compound 0.0316 µM, first compound 0.316 µM
# [4] = second compound 0.0316 µM, first compound 1 µM
# [5] = second compound 0.0316 µM, first compound 3.16 µM
# [6] = second compound 0.0316 µM, first compound 10 µM
# [7] = second compound 0.1 µM, first compound 0.0316 µM
# [8] = second compound 0.1 µM, first compound 0.1 µM
# [9] = second compound 0.1 µM, first compound 0.316 µM
# [10] = second compound 0.1 µM, first compound 1 µM
# [11] = second compound 0.1 µM, first compound 3.16 µM
# [12] = second compound 0.1 µM, first compound 10 µM
# [13] = second compound 0.316 µM, first compound 0.0316 µM
# [14] = second compound 0.316 µM, first compound 0.1 µM
# [15] = second compound 0.316 µM, first compound 0.316 µM
# [16] = second compound 0.316 µM, first compound 1 µM
# [17] = second compound 0.316 µM, first compound 3.16 µM
# [18] = second compound 0.316 µM, first compound 10 µM
# [19] = second compound 1 µM, first compound 0.0316 µM
# [20] = second compound 1 µM, first compound 0.1 µM
# [21] = second compound 1 µM, first compound 0.316 µM
# [22] = second compound 1 µM, first compound 1 µM
# [23] = second compound 1 µM, first compound 3.16 µM
# [24] = second compound 1 µM, first compound 10 µM
# [25] = second compound 3.16 µM, first compound 0.0316 µM
# [26] = second compound 3.16 µM, first compound 0.1 µM
# [27] = second compound 3.16 µM, first compound 0.316 µM
# [28] = second compound 3.16 µM, first compound 1 µM
# [29] = second compound 3.16 µM, first compound 3.16 µM
# [30] = second compound 3.16 µM, first compound 10 µM
# [31] = second compound 10 µM, first compound 0.0316 µM
# [32] = second compound 10 µM, first compound 0.1 µM
# [33] = second compound 10 µM, first compound 0.316 µM
# [34] = second compound 10 µM, first compound 1 µM
# [35] = second compound 10 µM, first compound 3.16 µM
# [36] = second compound 10 µM, first compound 10 µM
# 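Also: spheroids exposed to the compounds for one week.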
# 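For viability, T/C in this document: percent of tumor spheroid viability relative to DMSO vehicle control wells.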
smiles,measurement,setting,value
C=CCn1c(=O)c2cnc(Nc3ccc(N4CCN(C)CC4)cc3)nc2n1-c1cccc(C(C)(C)O)n1 + CN(C)c1ccc(Nc2c3ccc(NC(=O)CCN4CCCC4)cc3nc3cc(NC(=O)CCN4CCCC4)ccc23)cc1,IC50,second compound 0.0316 µM,415 nM
same,IC50,second compound 0.1 µM,311 nM
same,IC50,second compound 0.316 µM,341 nM
same,IC50,second compound 1 µM,462 nM
same,IC50,second compound 3.16 µM,358 nM
same,IC50,second compound 10 µM,< 31.6 nM
same,"viability, T/C",[1],104%
same,"viability, T/C",[2],102%
same,"viability, T/C",[3],62.7%
same,"viability, T/C",[4],8.77%
same,"viability, T/C",[5],3.39%
same,"viability, T/C",[6],2.43%
same,"viability, T/C",[7],120%
same,"viability, T/C",[8],98.9%
same,"viability, T/C",[9],51.7%
same,"viability, T/C",[10],7.71%
same,"viability, T/C",[11],3.11%
same,"viability, T/C",[12],2.74%
same,"viability, T/C",[13],122%
same,"viability, T/C",[14],93.5%
same,"viability, T/C",[15],58%
same,"viability, T/C",[16],9.28%
same,"viability, T/C",[17],2.73%
same,"viability, T/C",[18],2.28%
same,"viability, T/C",[19],102%
same,"viability, T/C",[20],103%
same,"viability, T/C",[21],70.5%
same,"viability, T/C",[22],8.23%
same,"viability, T/C",[23],2.54%
same,"viability, T/C",[24],2.76%
same,"viability, T/C",[25],105%
same,"viability, T/C",[26],98.3%
same,"viability, T/C",[27],55.2%
same,"viability, T/C",[28],8.19%
same,"viability, T/C",[29],2.51%
same,"viability, T/C",[30],2.74%
same,"viability, T/C",[31],22%
same,"viability, T/C",[32],22.4%
same,"viability, T/C",[33],12.2%
same,"viability, T/C",[34],5.57%
same,"viability, T/C",[35],1.22%
same,"viability, T/C",[36],1.46%
O=C(NO)c1cnc(N2CCN(S(=O)(=O)c3ccc4ccccc4c3)CC2)nc1 + CN(C)c1ccc(Nc2c3ccc(NC(=O)CCN4CCCC4)cc3nc3cc(NC(=O)CCN4CCCC4)ccc23)cc1,IC50,second compound 0.0316 µM,136 nM
same,IC50,second compound 0.1 µM,160 nM
same,IC50,second compound 0.316 µM,152 nM
same,IC50,second compound 1 µM,149 nM
same,IC50,second compound 3.16 µM,100 nM
same,IC50,second compound 10 µM,< 31.6 nM
same,"viability, T/C",[1],89.6%
same,"viability, T/C",[2],61.1%
same,"viability, T/C",[3],20%
same,"viability, T/C",[4],3.35%
same,"viability, T/C",[5],0.33%
same,"viability, T/C",[6],0.17%
same,"viability, T/C",[7],90.8%
same,"viability, T/C",[8],67.4%
same,"viability, T/C",[9],25.1%
same,"viability, T/C",[10],3.87%
same,"viability, T/C",[11],0.15%
same,"viability, T/C",[12],0.11%
same,"viability, T/C",[13],84.1%
same,"viability, T/C",[14],63.9%
same,"viability, T/C",[15],25.8%
same,"viability, T/C",[16],3.96%
same,"viability, T/C",[17],0.19%
same,"viability, T/C",[18],0.24%
same,"viability, T/C",[19],74.8%
same,"viability, T/C",[20],65.2%
same,"viability, T/C",[21],21.4%
same,"viability, T/C",[22],5.44%
same,"viability, T/C",[23],0.13%
same,"viability, T/C",[24],0.56%
same,"viability, T/C",[25],60.2%
same,"viability, T/C",[26],50.6%
same,"viability, T/C",[27],21.1%
same,"viability, T/C",[28],5.9%
same,"viability, T/C",[29],0.29%
same,"viability, T/C",[30],0.11%
same,"viability, T/C",[31],15.4%
same,"viability, T/C",[32],15.4%
same,"viability, T/C",[33],9.93%
same,"viability, T/C",[34],3.09%
same,"viability, T/C",[35],0.66%
same,"viability, T/C",[36],0.31%
CC1COCCN1c1cc(C2(S(C)(=N)=O)CC2)nc(-c2ccnc3[nH]ccc23)n1 (stereo not drawn) + Cc1[nH]c2ccc(F)cc2c1-c1nc2c3cccnc3c3ncccc3c2[nH]1,IC50,second compound 0.0316 µM,838 nM
same,IC50,second compound 0.1 µM,868 nM
same,IC50,second compound 0.316 µM,555 nM
same,IC50,second compound 1 µM,147 nM
same,IC50,second compound 3.16 µM,< 31.6 nM
same,IC50,second compound 10 µM,< 31.6 nM
same,"viability, T/C",[1],103%
same,"viability, T/C",[2],105%
same,"viability, T/C",[3],85.6%
same,"viability, T/C",[4],44.9%
same,"viability, T/C",[5],7.65%
same,"viability, T/C",[6],5.02%
same,"viability, T/C",[7],125%
same,"viability, T/C",[8],108%
same,"viability, T/C",[9],92.1%
same,"viability, T/C",[10],46.1%
same,"viability, T/C",[11],6.65%
same,"viability, T/C",[12],3.91%
same,"viability, T/C",[13],102%
same,"viability, T/C",[14],94.2%
same,"viability, T/C",[15],72%
same,"viability, T/C",[16],28%
same,"viability, T/C",[17],4.02%
same,"viability, T/C",[18],4.62%
same,"viability, T/C",[19],80.4%
same,"viability, T/C",[20],55.6%
same,"viability, T/C",[21],37%
same,"viability, T/C",[22],5.55%
same,"viability, T/C",[23],3.67%
same,"viability, T/C",[24],3.74%
same,"viability, T/C",[25],10.4%
same,"viability, T/C",[26],5.19%
same,"viability, T/C",[27],3.19%
same,"viability, T/C",[28],1.97%
same,"viability, T/C",[29],1.51%
same,"viability, T/C",[30],1.38%
same,"viability, T/C",[31],1.16%
same,"viability, T/C",[32],1.65%
same,"viability, T/C",[33],1.5%
same,"viability, T/C",[34],1.57%
same,"viability, T/C",[35],1.94%
same,"viability, T/C",[36],1.43%
COc1ccc([C@@H](O)c2cc(-c3ncnc4cc(N5CCOCC5)ccc34)c(F)cc2Cl)nn1 + Cc1[nH]c2ccc(F)cc2c1-c1nc2c3cccnc3c3ncccc3c2[nH]1,IC50,second compound 0.0316 µM,> 10000 nM
same,IC50,second compound 0.1 µM,> 10000 nM
same,IC50,second compound 0.316 µM,> 10000 nM
same,IC50,second compound 1 µM,4340 nM
same,IC50,second compound 3.16 µM,< 31.6 nM
same,IC50,second compound 10 µM,< 31.6 nM
same,"viability, T/C",[1],114%
same,"viability, T/C",[2],92.6%
same,"viability, T/C",[3],95.5%
same,"viability, T/C",[4],100%
same,"viability, T/C",[5],94.2%
same,"viability, T/C",[6],58.7%
same,"viability, T/C",[7],121%
same,"viability, T/C",[8],98%
same,"viability, T/C",[9],104%
same,"viability, T/C",[10],94%
same,"viability, T/C",[11],83.7%
same,"viability, T/C",[12],51.7%
same,"viability, T/C",[13],103%
same,"viability, T/C",[14],96.7%
same,"viability, T/C",[15],85.9%
same,"viability, T/C",[16],94.4%
same,"viability, T/C",[17],73.6%
same,"viability, T/C",[18],57.5%
same,"viability, T/C",[19],73.7%
same,"viability, T/C",[20],85.9%
same,"viability, T/C",[21],67.6%
same,"viability, T/C",[22],68.7%
same,"viability, T/C",[23],59.2%
same,"viability, T/C",[24],30%
same,"viability, T/C",[25],11.3%
same,"viability, T/C",[26],6.47%
same,"viability, T/C",[27],12.8%
same,"viability, T/C",[28],5.75%
same,"viability, T/C",[29],10.1%
same,"viability, T/C",[30],3.06%
same,"viability, T/C",[31],1.38%
same,"viability, T/C",[32],2.32%
same,"viability, T/C",[33],1.63%
same,"viability, T/C",[34],1.42%
same,"viability, T/C",[35],1.48%
same,"viability, T/C",[36],1.5%
